BindingDB's records for patent US20240352046 (1Cbio, 2024)

Target: T1, Ectonucleotide pyrophosphatase/phosphodiesterase family member 1 (Homo sapiens, UniProt P22413)
T1 sequence (P22413 whole entry): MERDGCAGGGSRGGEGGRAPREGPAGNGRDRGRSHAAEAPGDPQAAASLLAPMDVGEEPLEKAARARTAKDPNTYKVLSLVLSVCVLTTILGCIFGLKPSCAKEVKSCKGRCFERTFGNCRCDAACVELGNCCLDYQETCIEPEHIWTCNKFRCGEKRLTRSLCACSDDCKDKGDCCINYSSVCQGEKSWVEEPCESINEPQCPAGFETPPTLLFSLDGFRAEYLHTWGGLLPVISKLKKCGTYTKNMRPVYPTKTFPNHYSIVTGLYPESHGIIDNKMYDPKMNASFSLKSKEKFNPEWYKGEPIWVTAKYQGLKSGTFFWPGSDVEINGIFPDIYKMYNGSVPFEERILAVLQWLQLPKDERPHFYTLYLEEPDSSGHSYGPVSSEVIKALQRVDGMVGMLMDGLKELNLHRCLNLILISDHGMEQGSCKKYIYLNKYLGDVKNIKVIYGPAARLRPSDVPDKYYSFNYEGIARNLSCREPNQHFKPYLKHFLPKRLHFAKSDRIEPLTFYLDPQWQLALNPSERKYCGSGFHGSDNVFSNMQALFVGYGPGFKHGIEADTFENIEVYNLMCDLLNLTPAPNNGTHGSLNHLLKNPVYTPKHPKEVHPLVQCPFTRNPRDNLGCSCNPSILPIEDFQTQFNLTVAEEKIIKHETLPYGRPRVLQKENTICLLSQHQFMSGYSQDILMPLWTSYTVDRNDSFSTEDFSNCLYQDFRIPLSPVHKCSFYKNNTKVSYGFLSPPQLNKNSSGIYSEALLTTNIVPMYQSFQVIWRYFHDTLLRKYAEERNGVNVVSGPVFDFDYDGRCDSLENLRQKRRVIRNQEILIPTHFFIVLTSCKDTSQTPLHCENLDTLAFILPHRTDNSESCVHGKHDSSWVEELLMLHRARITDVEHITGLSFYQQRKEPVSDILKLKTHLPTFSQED
Assay: ENPP1 Inhibition Assay
Method: Dose response curve for the compounds were prepared in duplicates with starting conc. at 5 μM and a three-fold titration was performed. The reaction buffer consisted of 50 mM Tris (pH 8.0), 0.5 mM CaCl2), 1 μM ZnCl2, 250 mM NaCl and 0.1 mg/ml BSA. […] The reaction was then stopped by heating at 90° C. for 3 minutes. […] Following 60 min incubation, 20 μL of detection mixture was added to the enzyme reaction bringing the final volume to 40 μL. The reaction was further incubated for 60 min at RT after which the plates were read using BioTek Plate reader.

Row | IC50 [nM] | Compound
1 | 793 | COc1ccc2c(N3CC(CCN(C)S(N)(=O)=O)C3)ncnc2c1 [US20240352046, Compound 1.40]
2 | > 3000 | COc1ccc2c(N3CC(CCNS(N)(=O)=O)C3)nc(C3CC3)nc2c1 [US20240352046, Compound 1.42]
3 | 892 | COc1cc2nc(C(F)F)nc(N3CC(CCNS(N)(=O)=O)C3)c2cc1OC [US20240352046, Compound 1.43]
4 | 855 | COc1cc2ncnc(N3CC(CCN(C)S(N)(=O)=O)C3)c2cc1OC [US20240352046, Compound 1.47]
